US4356183A, “Antihypertensive 4-thiazolidinecarboxylic acids (pyridyl derivatives)” (Santen Pharmaceutical Co., Ltd., priority 1978, dated 1982)
Like-named read-outs stand apart in the source and are kept apart here.

Columns and labels:
[1] = tested on: contractile response to bradykinin (isolated guinea pig ileum); assay: Augmentation of contractile response of isolated guinea pig ileum to bradykinin; assay type: cell-based; details: Cavia porcellus, bradykinin 0.005 μg/ml; compound added 5 min before; 30° C.; read-out: Bradykinin AC50 (50% augmentation of bradykinin activity inducing the contraction of guinea pig ileum)
Method: (§1) Isolated guinea pig ileum was suspended in the organ bath containing 20 ml of Tyrode's solution of 30° C. gassed with 95% O2 +5% CO2. The contraction induced by the addition of angiotensin I (0.1 μg/ml) at intervals of 10 minutes was recorded on a recticorder (Nihon Koden) for 90 seconds using FD pick up (ST-1T-H, Nihon Koden).
(§2) The test compounds were added to the bath 5 minutes before the addition of angiotensin I.
From the fact that kininase II, which destroys bradykinin having contractive action on isolated guinea pig ileum, is thought to be identical with angiotensin I-converting enzyme, augmentation of the contractile response to bradykinin by test compounds was examined by using bradykinin (0.005 μg/ml) in place of angiotensin I according to the above mentioned method.

[2] = biological target: T1, angiotensin I-converting enzyme (Oryctolagus cuniculus, UniProt P12822); assay: Inhibition of angiotensin I-converting enzyme by spectrophotometry (HHL substrate); assay type: biochemical; details: enzyme from rabbit lung; 5 mM HHL; pH 8.3; 37° C., 30 min
T1 construct: angiotensin I-converting enzyme extracted from rabbit lung; from tissue; host or cells: rabbit lung
T1 sequence (P12822 34-1310): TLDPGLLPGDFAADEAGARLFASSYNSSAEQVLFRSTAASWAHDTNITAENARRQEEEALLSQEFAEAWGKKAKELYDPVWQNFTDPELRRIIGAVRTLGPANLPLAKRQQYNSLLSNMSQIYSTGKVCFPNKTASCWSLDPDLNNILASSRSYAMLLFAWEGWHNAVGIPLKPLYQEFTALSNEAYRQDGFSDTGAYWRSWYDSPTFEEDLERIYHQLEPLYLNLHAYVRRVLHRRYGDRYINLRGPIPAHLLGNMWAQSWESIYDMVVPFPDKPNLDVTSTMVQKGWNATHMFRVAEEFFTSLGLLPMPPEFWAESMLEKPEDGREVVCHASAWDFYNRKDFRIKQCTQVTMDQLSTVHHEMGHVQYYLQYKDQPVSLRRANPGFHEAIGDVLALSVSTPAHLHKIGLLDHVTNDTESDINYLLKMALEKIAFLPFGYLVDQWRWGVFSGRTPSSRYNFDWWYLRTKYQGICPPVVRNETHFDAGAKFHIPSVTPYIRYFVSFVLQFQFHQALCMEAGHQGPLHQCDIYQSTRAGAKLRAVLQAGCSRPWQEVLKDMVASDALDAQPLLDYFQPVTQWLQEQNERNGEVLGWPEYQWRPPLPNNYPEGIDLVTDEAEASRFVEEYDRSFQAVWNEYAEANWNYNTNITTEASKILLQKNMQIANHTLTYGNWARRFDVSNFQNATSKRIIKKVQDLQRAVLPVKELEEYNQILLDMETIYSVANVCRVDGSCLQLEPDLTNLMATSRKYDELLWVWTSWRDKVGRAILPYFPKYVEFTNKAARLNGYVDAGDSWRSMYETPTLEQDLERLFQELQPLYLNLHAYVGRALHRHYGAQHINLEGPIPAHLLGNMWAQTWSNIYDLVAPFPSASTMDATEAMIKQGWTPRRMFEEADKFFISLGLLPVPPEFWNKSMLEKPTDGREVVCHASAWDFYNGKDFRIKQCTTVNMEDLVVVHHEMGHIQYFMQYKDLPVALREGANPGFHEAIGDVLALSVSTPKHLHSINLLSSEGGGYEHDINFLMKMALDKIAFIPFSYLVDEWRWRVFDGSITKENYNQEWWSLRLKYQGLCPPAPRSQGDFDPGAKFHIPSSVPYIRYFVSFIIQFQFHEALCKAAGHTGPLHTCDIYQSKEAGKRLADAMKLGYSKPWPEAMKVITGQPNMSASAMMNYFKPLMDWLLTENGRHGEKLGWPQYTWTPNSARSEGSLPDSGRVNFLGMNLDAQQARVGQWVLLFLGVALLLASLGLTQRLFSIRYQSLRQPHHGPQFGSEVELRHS
Method: That is, the absorbance of hippuric acid was measured, which is liberated by incubating hippuryl-L-histidyl-L-leucine (HHL) as substrate in the presence of angiotensin I-converting enzyme extracted from rabbit lung.
(§3) Measurement of inhibitory activity of angiotensin I-converting enzyme
The reaction mixture is as follows:
100 mM phosphate buffer (pH 8.3)
10^-3 ~10^-9 M enzyme inhibitor
0.25 ml of the above mixture was incubated at 37° C. for 30 minutes and the reaction was stopped by adding 0.25 ml of 1 N hydrochloric acid. To this solution, 1.5 ml of ethyl acetate was added in order to extract hippuric acid. 1.0 ml of ethyl acetate layer was collected and evaporated to dryness, and the residue obtained was dissolved in 1.0 ml of water.
The inhibitory activity of angiotensin I-converting enzyme was calculated by the following formula: [formula]

[3] = Acute toxicity test; details: rat, in vivo
Method: The male ddy-SLC strain […] (4 weeks of age, weighing 19-21 g) were placed in a breeding room of constant temperature and humidity (23°±1° C., 55±5%) and fed freely pellet diet (CE-2, Clea Japan Inc.) and water ad. libitum for a week. The rats showing the normal growth were selected for the experiment.
Test compounds are suspended in 0.5% tragacanth solution (p.o.) or dissolved in distilled water (i.v., i.p.), and administered in a dose of 0.5 ml/20 g body weight.

[4] = tested on: contractile response of isolated guinea pig ileum to angiotensin I; assay: Inhibition of contractile response of isolated guinea pig ileum to angiotensin I; assay type: cell-based; details: Cavia porcellus, angiotensin I 0.1 μg/ml; compound added 5 min before; 30° C.; read-out: Angiotensin I IC50 (50% inhibition of angiotensin I activity inducing the contraction of guinea pig ileum)
Text: As the method of measurement of angiotensin I-converting enzyme activity, bioassay for the contractile response of isolated smooth muscle or the pressor response of normal animals and biochemical assay for the enzyme isolated from lung or other organs of animals are known. The former is found more advantageous than the latter for the examination of the convertion of angiotensin I to angiotensin II in vivo.
In the present study, therefore, we adopted the bioassay for contractile response of isolated guinea pig ileum to angiotensin I.
as §3, §1, §2
The inhibitory activity of angiotensin I-converting enzyme was calculated by the following formula. [formula] A: contractile intensity of angiotensin I before addition of the compound B: contractile intensity of angiotensin I after addition of the compound

[5] = tested on: pressor response to angiotensin I; assay: Inhibition of pressor response to angiotensin I in rats after oral administration; assay type: in vivo, rat (male Wistar); details: angiotensin I 300 ng/kg i.v.
Method: Male Wistar strain rats weighing about 200-300 g were used.
Under ether anesthesia, polyethylene cannulae are inserted into carotid arthery and jugular vein. The cannula to carotid artery is connected to an electric transducer, while the cannula to jugular vein is connected to an apparatus for continuous infusion. After the complete recovery from anesthesia, angiotensin I is infused intravenously in a dose of 300 ng/kg by the apparatus for continuous infusion, and the pressor response is recorded by polygraph (Nihon Koden, RM-150).
The compounds of this invention suspended in 0.5% tragacanth solution are administered orally in a dose of 0.3 ml per 100 g of body weight, and the pressor response to angiotensin I infused intravenously is measured with time.
The inhibitory activity of the compounds against angiotensin I-converting enzyme is expressed as the percent inhibition of pressor response to angiotensin I.

SMILES | AC50 [1] | IC50 [2] | LD50 ([3]; ip, dissolved in distilled water, pH 7, read-out: LD i.p.) | IC50 [4] | LD50 ([3]; po, suspended in 0.5% tragacanth solution, read-out: LD50 p.o.) | Inhibition (%) of pressor response to angiotensin I, 5 min ([5]; 5 min, dose: 3, 45, 49 1.8 mg/kg, 4, 46 1.3, 50 1.4, 76 2.0, 77 1.5) | Inhibition (%) of pressor response to angiotensin I, 15 min ([5]; 15 min, dose: 3, 45, 49 1.8 mg/kg, 4, 46 1.3, 50 1.4, 76 2.0, 77 1.5) | Inhibition (%) of pressor response to angiotensin I, 25 min ([5]; 25 min, dose: 3, 45, 49 1.8 mg/kg, 4, 46 1.3, 50 1.4, 76 2.0, 77 1.5) | Inhibition (%) of pressor response to angiotensin I, 35 min ([5]; 35 min, dose: 3, 45, 49 1.8 mg/kg, 4, 46 1.3, 50 1.4, 76 2.0, 77 1.5) | Inhibition (%) of pressor response to angiotensin I, 45 min ([5]; 45 min, dose: 3, 45, 49 1.8 mg/kg, 4, 46 1.3, 50 1.4, 76 2.0, 77 1.5) | Inhibition (%) of pressor response to angiotensin I, 55 min ([5]; 55 min, dose: 3, 45, 49 1.8 mg/kg, 4, 46 1.3, 50 1.4, 76 2.0, 77 1.5) | Inhibition (%) of pressor response to angiotensin I, 65 min ([5]; 65 min, dose: 3, 45, 49 1.8 mg/kg, 4, 46 1.3, 50 1.4, 76 2.0, 77 1.5) | Inhibition (%) of pressor response to angiotensin I, 75 min ([5]; 75 min, dose: 3, 45, 49 1.8 mg/kg, 4, 46 1.3, 50 1.4, 76 2.0, 77 1.5) | Inhibition (%) of pressor response to angiotensin I, 85 min ([5]; 85 min, dose: 3, 45, 49 1.8 mg/kg, 4, 46 1.3, 50 1.4, 76 2.0, 77 1.5) | Inhibition (%) of pressor response to angiotensin I, 95 min ([5]; 95 min, dose: 45, 49 1.8 mg/kg, 4, 46 1.3, 50 1.4, 76 2.0, 77 1.5) | Inhibition (%) of pressor response to angiotensin I, 105 min ([5]; 105 min, dose: 45, 49 1.8 mg/kg, 46 1.3, 50 1.4, 76 2.0, 77 1.5) | Inhibition (%) of pressor response to angiotensin I, 115 min ([5]; 115 min, dose: 45, 49 1.8 mg/kg, 46 1.3, 50 1.4, 76 2.0, 77 1.5)
C[C@H](CS)C(=O)N1C(c2ccccc2)SC[C@H]1C(=O)O (stereo partly shown) [Compound 18] | 3.1 nM | 60 nM | > 1000 mg/kg | 190 nM |  |  |  |  |  |  |  |  |  |  |  |  | 
O=C(O)[C@@H]1CSC(c2ccccc2O)N1C(=O)CCS (stereo partly drawn) [Compound 46, (4R)-2-(2-Hydroxyphenyl)-3-(3-mercaptopropanoyl)-4-thiazolidinecarboxylic acid] | 0.3 nM |  |  | 19 nM | > 10000 mg/kg | 53.3% | 62.9% | 64.7% | 63.7% | 54.0% | 49.3% | 47.7% | 38.8% | 34.0% | 30.0% | 30.0% | 31.0%
